Measurements from ChEMBL document CHEMBL1862790, “Optimisation of fenarimol series for the treatment of Chagas disease”.

Assays:
Trypanosoma cruzi [1] = test: microbe, parasite or virus in culture; type: functional, organism-based, Tulahuen LacZ, Clone C4; conditions: Trypanosoma cruzi, Tulahuen LacZ, Clone C4
[2] = DNDI: Cytotoxicity against L-6 rat myoblasts from skeletal muscle cells; conditions: L6 rat skeletal muscle myoblast cells
Trypanosoma cruzi [3] = test: microbe, parasite or virus in culture; type: functional, Tulahuen LacZ, Clone C4; conditions: Trypanosoma cruzi, Tulahuen LacZ, Clone C4

SMILES | IC50 (Trypanosoma cruzi [1]) [nM] | IC90 (Trypanosoma cruzi [3]) [nM] | IC50 ([2]; IC50) [nM] | IC50 [2] [nM]
OC(c1ccc(Cl)cc1)(c1cncnc1)c1cccc(Cl)c1 (stereo not drawn) | 513 | 10000 | 57200 | –
O=S(=O)(NC1CCN(C(c2ccc(C(F)(F)F)cc2)c2cnccn2)CC1)c1ccccc1 (stereo not drawn) | 260 | 900 | 55900 | –
CC1=C(C(=O)Nc2ccccc2)S(=O)(=O)CCO1 [OXYCARBOXIN] | 65100 | > 100000 | – | > 100000
O=S(=O)(NC1CCN(C(c2cnccn2)c2ccc(F)cc2F)CC1)c1ccc(C(F)(F)F)cc1 (stereo not drawn) | > 1000 | > 1000 | 29400 | –
OC(c1ccc(Cl)cc1)(c1cnccn1)c1ccccc1Cl (stereo not drawn) | 440 | 7900 | > 100000 | –
O=S(=O)(Cc1ccccc1)N1CCC(NC(c2cnccn2)c2ccc(F)cc2F)CC1 (stereo not drawn) | 190 | 400 | > 100000 | –
OC(c1ccc(Cl)cc1)(c1cccnc1)c1cc(F)ccc1F (stereo not drawn) | 44 | 108 | – | > 100000
CN(C)C(=O)NC1CCN(C(c2cnccn2)c2ccc(F)cc2F)CC1 (stereo not drawn) | > 1000 | > 1000 | > 100000 | –
OC(c1ccc(Cl)cc1)(c1ccncn1)c1ccccc1Cl (stereo not drawn) | 7050 | 8570 | – | > 100000
CC(C)CNC(c1ccc(Cl)cc1)c1cccnc1 (stereo not drawn) | 200 | 430 | > 100000 | –
CC(C)S(=O)(=O)N1CCN(C(c2cncnc2)c2ccc(Cl)cc2F)CC1 (stereo not drawn) | 120 | 330 | > 100000 | –
CO/C=C(/C(=O)OC)c1ccccc1Oc1cc(Oc2ccccc2C#N)ncn1 [AZOXYSTROBIN] | 3260 | 8680 | – | 50300
OC(c1ccc(C(F)(F)F)cc1)(c1cccnc1)c1ccccc1F (stereo not drawn) | 22 | 210 | – | > 100000
Cc1noc(N2CCN(C(c3cncnc3)c3ccc(C(F)(F)F)cc3F)CC2)n1 (stereo not drawn) | 126 | 282 | > 100000 | –
O=C(c1ccc(Cl)cc1)c1ccccc1Cl | > 10000 | 10000 | > 100000 | –
CC(C)c1ccc(S(=O)(=O)NC2CCN(C(c3cnccn3)c3ccc(F)cc3F)CC2)cc1 (stereo not drawn) | 850 | > 1000 | 25500 | –
O=C(c1ccccc1)N1CCC(NC(c2cnccn2)c2ccc(F)cc2F)CC1 (stereo not drawn) | 680 | > 1000 | > 100000 | –
CC(=O)NC(c1ccc(C(F)(F)F)cc1)c1cnccn1 (stereo not drawn) | > 10000 | > 10000 | > 100000 | –
Cc1cc(C(=O)N2CCC(NC(c3ccc(C(F)(F)F)cc3)c3cccnc3)CC2)on1 (stereo not drawn) | 363 | 779 | > 100000 | –
O=C(Cc1ccccc1)N1CCC(NC(c2ccc(C(F)(F)F)cc2)c2cnccn2)CC1 (stereo not drawn) | 540 | 950 | 70500 | –
CC(C)(C)N1CCC(NC(c2ccc(Cl)cc2)c2cccnc2)CC1 (stereo not drawn) | 3060 | 8660 | > 100000 | –
OC1CCN(C(c2ccc(Cl)cc2)c2cccnc2)CC1 (stereo not drawn) | 800 | > 1000 | > 100000 | –
OC(c1ccc(Cl)cc1)(c1cccnc1)c1ccc(Cl)cc1Cl (stereo not drawn) | 15 | 52.2 | – | 53100
CC(C)(C)C(=O)N1CCN(C(c2ccc(C#N)cc2)c2cccnc2)CC1 (stereo not drawn) | 254 | 696 | > 100000 | –
OC(c1ccc(Cl)cc1)(c1ncccn1)c1ccccc1Cl (stereo not drawn) | 22900 | 66000 | > 100000 | –

Further lines, with some results ahead:

IC50 (Trypanosoma cruzi [1]) [nM] | IC90 (Trypanosoma cruzi [3]) [nM] | SMILES | IC50 ([2]; IC50) [nM] | IC50 [2] [nM]
20 | 64 | FC(F)(F)c1ccc(C(NC2CCN(c3ncccn3)CC2)c2cncs2)cc1 (stereo not drawn) | 76700 | –
9 | 31.5 | FC(F)(F)c1ccc(C(NC2CCN(c3ccccc3C(F)(F)F)CC2)c2cccnc2)cc1 (stereo not drawn) | 45800 | –
31 | 120 | N#Cc1ccnc(N2CCC(NC(c3ccc(C(F)(F)F)cc3)c3cccnc3)CC2)n1 (stereo not drawn) | 49700 | –
17.5 | 41 | Cc1nc(C(=O)NC2CCN(C(c3ccc(C(F)(F)F)cc3)c3cccnc3)CC2)cs1 (stereo not drawn) | 43800 | –
68.5 | 240 | Cc1ncsc1C(=O)N1CCC(NC(c2ccc(C(F)(F)F)cc2)c2cncs2)CC1 (stereo not drawn) | > 100000 | –
26.5 | > 100 | FC(F)(F)c1ccc(C(c2cccnc2)N2CCC(Oc3ccccc3)CC2)cc1 (stereo not drawn) | 54400 | –
12 | 28.5 | Cc1cc(C(=O)NC2CCN(C(c3ccc(C(F)(F)F)cc3)c3cccnc3)CC2)n(C)n1 (stereo not drawn) | 54600 | –
33 | 140 | NC(=O)c1ccccc1C(O)(c1ccc(Cl)cc1)c1cccnc1 (stereo not drawn) | > 100000 | –
33 | 106 | O=C(c1ccccc1)N1CCC(NC(c2ccc(C(F)(F)F)cc2)c2cncs2)CC1 (stereo not drawn) | 76100 | –
24 | 74 | CC(C)(C)OC(=O)N1CCC(NC(c2ccc(Cl)cc2)c2cccnc2)CC1 (stereo not drawn) | 58200 | –
64 | 127 | Cc1noc(N2CCN(C(c3ccc(C#N)cc3)c3cccnc3)CC2)n1 (stereo not drawn) | > 100000 | –
84 | 190 | O=C(c1ccccc1)N1CCC(NC(c2ccc(Cl)cc2)c2cccnc2)CC1 (stereo not drawn) | > 100000 | –
17 | 45 | Clc1ccc(C(c2cccnc2)c2cccs2)cc1 (stereo not drawn) | > 100000 | –
32 | 140 | O=S(=O)(Cc1ccccc1)N1CCN(C(c2ccc(Cl)cc2)c2cccnc2)CC1 (stereo not drawn) | 57700 | –
15 | 114 | O=C(NC1CCN(C(c2cncnc2)c2ccc(Cl)cc2F)CC1)c1ccc(F)cc1F (stereo not drawn) | 81000 | –
38 | 130 | O=C(NC1CCN(C(c2cccnc2)c2ccc(Cl)cc2F)CC1)C1CC1 (stereo not drawn) | > 100000 | –
23 | 75.5 | N#Cc1ccc(C(c2cccnc2)N2CCC(NC(=O)c3cccc(C(F)(F)F)c3)CC2)cc1 (stereo not drawn) | > 100000 | –
28 | 67 | CC(C)(C)OC(=O)N1CCC(CN(c2ccc(C(F)(F)F)cc2)c2cccnc2)CC1 | 51700 | –
78 | 250 | O=C(Nc1ccccc1)N1CCC(NC(c2ccc(Cl)cc2)c2cccnc2)CC1 (stereo not drawn) | 63700 | –
28 | 85 | CCN(CC)C(=O)NC1CCN(C(c2ccc(C#N)cc2)c2cccnc2)CC1 (stereo not drawn) | > 100000 | –
32 | 150 | OC(c1ccc(Cl)cc1)(c1cccnc1)c1cnc(OC(CF)CF)nc1 (stereo not drawn) | > 100000 | –
54 | 110 | CC(C)(C)NC(=O)N1CCN(C(c2cncnc2)c2ccc(Cl)cc2F)CC1 (stereo not drawn) | > 100000 | –
20 | 75 | O=C(Nc1ccccc1)NC1CCN(C(c2ccc(Cl)cc2)c2cccnc2)CC1 (stereo not drawn) | 75600 | –
14 | 56 | CC(C)N(C(=O)c1cccc(C(O)(c2ccc(Cl)cc2)c2cccnc2)c1)C(C)C (stereo not drawn) | 54700 | –
17.5 | 95.5 | O=C(NC1CCN(C(c2cncnc2)c2ccc(Cl)cc2F)CC1)c1ccccc1F (stereo not drawn) | > 100000 | –
18.5 | 122 | N#Cc1ccc(C(c2cccnc2)N2CCC(NC(=O)c3ccc(F)cc3)CC2)cc1 (stereo not drawn) | > 100000 | –
